According to ChEMBL document CHEMBL1152016, “Synthesis and -lactamase inhibition of anacardic acids and their analogues” (Bioorg Med Chem Lett, 1994):
Values after ≈ are worked out from the molar mass of the structure shown.

Columns and labels:
Beta-lactamase [1] = molecular target: T1, Beta-lactamase (Staphylococcus aureus, UniProt P00807); test: Concentration required for its inhibitory activity against Staphylococcus aureus Russel class A beta-lactamase; No inhibition
Beta-lactamase TEM = Beta-lactamase TEM (Escherichia coli, UniProt P62593); test: Concentration required for its inhibitory activity against Escherichia coli JT4(TEM1) class A beta-lactamase
Beta-lactamase OXA-1 [2] = molecular target: T2, Beta-lactamase OXA-1 (Escherichia coli, UniProt P13661); test: Concentration required for its inhibitory activity against Escherichia coli K12(OXA1) class D beta-lactamase
Beta-lactamase pse-1 = molecular target: T3, Beta-lactamase pse-1 (Escherichia coli, UniProt Q2V0Y6); test: Concentration required for its inhibitory activity against Escherichia coli K12(PSE4) class A beta-lactamase
T3 sequence (Q2V0Y6 whole entry): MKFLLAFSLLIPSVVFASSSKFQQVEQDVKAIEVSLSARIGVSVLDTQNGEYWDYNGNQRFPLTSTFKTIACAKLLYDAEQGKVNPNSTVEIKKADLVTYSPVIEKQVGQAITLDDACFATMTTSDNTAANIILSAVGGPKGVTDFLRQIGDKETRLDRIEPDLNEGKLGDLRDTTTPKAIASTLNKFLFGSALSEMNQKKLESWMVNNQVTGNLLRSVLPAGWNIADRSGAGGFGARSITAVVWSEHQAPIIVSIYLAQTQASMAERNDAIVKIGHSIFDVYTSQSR

Beta-lactamase [3] = molecular target: Beta-lactamase (Enterobacter cloacae, UniProt P05364); test: Concentration required for its inhibitory activity against Enterobacter cloacae P99 class C beta-lactamase
Beta-lactamase [4] = molecular target: T4, Beta-lactamase (Proteus mirabilis, UniProt P30897); test: Concentration required for its inhibitory activity against Proteus mirabilis C889 class A beta-lactamase
T4 sequence (P30897 whole entry): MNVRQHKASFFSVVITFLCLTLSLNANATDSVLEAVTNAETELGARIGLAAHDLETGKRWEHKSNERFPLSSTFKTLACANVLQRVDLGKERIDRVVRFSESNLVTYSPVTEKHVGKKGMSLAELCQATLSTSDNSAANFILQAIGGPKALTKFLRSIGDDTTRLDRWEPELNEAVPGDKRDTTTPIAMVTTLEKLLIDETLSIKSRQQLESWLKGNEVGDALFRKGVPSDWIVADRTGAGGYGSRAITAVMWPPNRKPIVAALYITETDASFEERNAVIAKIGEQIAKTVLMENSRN

Beta-lactamase [5] = molecular target: Beta-lactamase (Pseudomonas aeruginosa (strain ATCC 15692 / PAO1 / 1C / PRS 101 / LMG12228), UniProt P24735); test: Concentration required for its inhibitory activity against Pseudomonas aeruginosa class C beta-lactamase
Beta-lactamase [6] = molecular target: T1, Beta-lactamase; test: Concentration required for its inhibitory activity against Staphylococcus aureus Russel class A beta-lactamase
Beta-lactamase [7] = molecular target: T4, Beta-lactamase; test: Concentration required for its inhibitory activity against Proteus mirabilis C889 class A beta-lactamase; No inhibition
Beta-lactamase OXA-1 [8] = molecular target: T2, Beta-lactamase OXA-1; test: Concentration required for its inhibitory activity against Escherichia coli K12(OXA1) class D beta-lactamase; No inhibition

T2 sequence (P13661 whole entry): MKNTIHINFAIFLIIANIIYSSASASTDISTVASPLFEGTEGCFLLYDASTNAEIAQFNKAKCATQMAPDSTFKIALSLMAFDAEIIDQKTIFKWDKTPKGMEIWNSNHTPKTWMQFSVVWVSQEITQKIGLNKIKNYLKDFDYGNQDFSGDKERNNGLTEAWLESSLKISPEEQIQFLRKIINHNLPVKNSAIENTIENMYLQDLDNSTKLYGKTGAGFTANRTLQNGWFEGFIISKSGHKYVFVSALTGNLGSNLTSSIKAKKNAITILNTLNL
Chain of Beta-lactamase TEM (P62593 whole entry): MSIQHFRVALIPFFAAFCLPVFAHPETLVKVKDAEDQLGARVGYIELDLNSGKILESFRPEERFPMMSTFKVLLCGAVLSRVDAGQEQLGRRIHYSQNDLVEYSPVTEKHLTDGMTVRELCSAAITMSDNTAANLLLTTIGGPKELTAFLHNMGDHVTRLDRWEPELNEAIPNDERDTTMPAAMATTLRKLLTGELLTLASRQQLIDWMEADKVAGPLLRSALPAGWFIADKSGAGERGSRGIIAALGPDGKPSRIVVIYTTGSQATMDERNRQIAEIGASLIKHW
T1 sequence (P00807 whole entry): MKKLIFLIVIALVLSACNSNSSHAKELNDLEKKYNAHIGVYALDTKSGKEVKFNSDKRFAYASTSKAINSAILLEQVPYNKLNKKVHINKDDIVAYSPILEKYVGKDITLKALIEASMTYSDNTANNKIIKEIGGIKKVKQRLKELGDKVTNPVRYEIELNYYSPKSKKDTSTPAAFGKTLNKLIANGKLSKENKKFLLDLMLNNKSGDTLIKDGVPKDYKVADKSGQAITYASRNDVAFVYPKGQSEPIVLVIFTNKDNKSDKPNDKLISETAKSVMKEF
Chain of Beta-lactamase (Enterobacter cloacae, UniProt P05364) (P05364 whole entry): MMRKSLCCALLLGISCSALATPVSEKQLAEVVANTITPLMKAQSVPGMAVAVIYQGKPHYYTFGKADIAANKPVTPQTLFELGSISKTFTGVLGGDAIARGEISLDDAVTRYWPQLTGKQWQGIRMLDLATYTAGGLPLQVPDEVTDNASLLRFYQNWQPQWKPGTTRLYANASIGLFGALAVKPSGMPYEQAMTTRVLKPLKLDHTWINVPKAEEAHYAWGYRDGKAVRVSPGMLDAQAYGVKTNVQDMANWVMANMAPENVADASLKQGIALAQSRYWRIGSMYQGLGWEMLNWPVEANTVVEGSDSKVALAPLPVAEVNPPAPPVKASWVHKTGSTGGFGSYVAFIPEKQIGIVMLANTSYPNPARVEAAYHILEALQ
Chain of Beta-lactamase (Pseudomonas aeruginosa (strain ATCC 15692 / PAO1 / 1C / PRS 101 / LMG12228), UniProt P24735) (P24735 whole entry): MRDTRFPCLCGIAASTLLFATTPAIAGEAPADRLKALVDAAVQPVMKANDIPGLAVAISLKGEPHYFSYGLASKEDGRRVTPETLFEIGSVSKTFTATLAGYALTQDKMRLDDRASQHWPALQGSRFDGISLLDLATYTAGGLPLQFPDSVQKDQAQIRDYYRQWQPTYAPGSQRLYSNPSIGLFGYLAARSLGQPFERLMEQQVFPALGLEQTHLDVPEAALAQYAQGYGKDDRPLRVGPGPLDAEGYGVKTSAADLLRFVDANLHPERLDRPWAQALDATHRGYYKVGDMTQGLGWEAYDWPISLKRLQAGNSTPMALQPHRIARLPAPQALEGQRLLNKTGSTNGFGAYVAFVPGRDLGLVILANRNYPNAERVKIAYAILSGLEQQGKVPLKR

CCCCCCCCCCc1ccccc1C(=O)O
IC50 (Beta-lactamase [1]): Not Active | IC50 (Beta-lactamase TEM): 18 µg/mL (≈ 68.6 µM)

CCCCCCCCCCCCCCCCCc1cccc(O)c1C(=O)O
IC50 (Beta-lactamase OXA-1 [2]): 29 µg/mL (≈ 77 µM) | IC50 (Beta-lactamase pse-1): 0.7 µg/mL (≈ 1.86 µM) | IC50 (Beta-lactamase [3]): 1 µg/mL (≈ 2.66 µM) | IC50 (Beta-lactamase [4]): 8.3 µg/mL (≈ 22 µM) | IC50 (Beta-lactamase [1]): Not Active | IC50 (Beta-lactamase TEM): 1.9 µg/mL (≈ 5.05 µM) | IC50 (Beta-lactamase [5]): 9.1 µg/mL (≈ 24.2 µM)

CCCCCCCCCCCCCCCc1cccc(OC)c1C(=O)O
IC50 (Beta-lactamase OXA-1 [2]): > 33 µg/mL | IC50 (Beta-lactamase pse-1): 0.6 µg/mL (≈ 1.65 µM) | IC50 (Beta-lactamase [3]): 2.5 µg/mL (≈ 6.9 µM) | IC50 (Beta-lactamase [4]): 22 µg/mL (≈ 60.7 µM) | IC50 (Beta-lactamase [1]): Not Active | IC50 (Beta-lactamase TEM): 0.8 µg/mL (≈ 2.21 µM) | IC50 (Beta-lactamase [5]): 11 µg/mL (≈ 30.3 µM)

CCCCCCCCCCc1cccc(O)c1O
IC50 (Beta-lactamase [3]): 21 µg/mL (≈ 83.9 µM)

CCCCCCCCCCc1cccc(O)c1
IC50 (Beta-lactamase pse-1): 4.1 µg/mL (≈ 17.5 µM) | IC50 (Beta-lactamase [3]): 4.5 µg/mL (≈ 19.2 µM) | IC50 (Beta-lactamase [6]): Not Active | IC50 (Beta-lactamase TEM): 1.9 µg/mL (≈ 8.11 µM) | IC50 (Beta-lactamase [7]): Not Active

CCCCCCCCc1cccc(O)c1C(=O)O
IC50 (Beta-lactamase pse-1): 16 µg/mL (≈ 63.9 µM) | IC50 (Beta-lactamase [4]): 3.9 µg/mL (≈ 15.6 µM) | IC50 (Beta-lactamase [1]): Not Active | IC50 (Beta-lactamase OXA-1 [8]): Not Active

CCC=CCC=CCC=CCCCCCCCc1cccc(O)c1C(=O)O
IC50 (Beta-lactamase pse-1): 10 µg/mL (≈ 27 µM) | IC50 (Beta-lactamase [3]): 17 µg/mL (≈ 45.9 µM) | IC50 (Beta-lactamase [1]): Not Active

CC(C)CCCCCCCCCCCCCc1cccc(O)c1C(=O)O
IC50 (Beta-lactamase [3]): 9 µg/mL (≈ 24.8 µM) | IC50 (Beta-lactamase [1]): Not Active | IC50 (Beta-lactamase TEM): 9.7 µg/mL (≈ 26.8 µM) | IC50 (Beta-lactamase [5]): 16 µg/mL (≈ 44.1 µM)

CCC(C)CCCCCCCCCCCCc1cccc(O)c1C(=O)O (stereo not given)
IC50 (Beta-lactamase [3]): 31 µg/mL (≈ 85.5 µM) | IC50 (Beta-lactamase TEM): 10 µg/mL (≈ 27.6 µM) | IC50 (Beta-lactamase [5]): 36 µg/mL (≈ 99.3 µM)

CCCCCCCCCCCCCCCc1cccc(O)c1
IC50 (Beta-lactamase pse-1): 20 µg/mL (≈ 65.7 µM) | IC50 (Beta-lactamase [3]): 7.2 µg/mL (≈ 23.6 µM) | IC50 (Beta-lactamase [7]): Not Active

CCCCCCCCCCc1cccc(O)c1C(=O)O
IC50 (Beta-lactamase [1]): Not Active | IC50 (Beta-lactamase TEM): 12 µg/mL (≈ 43.1 µM)

CCCCCCCCCCCCCCCc1cccc(O)c1O
IC50 (Beta-lactamase [3]): 29 µg/mL (≈ 90.5 µM)

C=CC/C=C\C/C=C\CCCCCCCc1cccc(O)c1C(=O)O [ANACARDIC ACID]
IC50 (Beta-lactamase OXA-1 [2]): 25 µg/mL (≈ 73 µM) | IC50 (Beta-lactamase pse-1): 1.1 µg/mL (≈ 3.21 µM) | IC50 (Beta-lactamase [3]): 1.4 µg/mL (≈ 4.09 µM) | IC50 (Beta-lactamase [4]): 31 µg/mL (≈ 90.5 µM) | IC50 (Beta-lactamase [1]): Not Active | IC50 (Beta-lactamase TEM): 0.8 µg/mL (≈ 2.34 µM) | IC50 (Beta-lactamase [5]): 7.2 µg/mL (≈ 21 µM)

O=C(O)[C@H]1/C(=C/CO)O[C@@H]2CC(=O)N21 [CLAVULANIC ACID]
IC50 (Beta-lactamase pse-1): 0.015 µg/mL (≈ 0.0753 µM)
